# Laboratory results reported in ChEMBL document CHEMBL2331344, “Pharmacological chaperones as therapeutics for lysosomal storage diseases” (J Med Chem, 2013).
# Non-standard residues stand in square brackets, D forms with d. Residues, ends and D or L forms follow the SMILES beside them. *: point of attachment. Palmitoyl = CCCCCCCCCCCCCCCC(=O)*; Dap = NC[C@H](N)C(=O)O
# Legend:
# [1] = test system: T1, Alpha-galactosidase A (Homo sapiens), P06280 [R301Q]; assay: Induction of alpha galactosidase A R301Q mutant activity in lymphoblasts derived from Fabry disease patient at 100 uM after 4 days relative to control
# T1 sequence (whole entry): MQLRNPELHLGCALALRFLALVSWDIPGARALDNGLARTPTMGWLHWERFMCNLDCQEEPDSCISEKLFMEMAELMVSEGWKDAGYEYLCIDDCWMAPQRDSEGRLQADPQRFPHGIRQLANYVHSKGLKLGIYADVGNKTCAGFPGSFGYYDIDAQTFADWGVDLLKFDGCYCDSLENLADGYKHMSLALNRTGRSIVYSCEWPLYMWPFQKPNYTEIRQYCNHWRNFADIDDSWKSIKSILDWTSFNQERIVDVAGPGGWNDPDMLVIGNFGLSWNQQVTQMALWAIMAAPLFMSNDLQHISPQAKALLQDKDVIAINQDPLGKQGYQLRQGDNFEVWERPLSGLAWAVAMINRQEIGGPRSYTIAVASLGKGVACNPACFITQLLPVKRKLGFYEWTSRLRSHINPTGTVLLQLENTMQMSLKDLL
# Mus musculus [2] = assay: Induction of human alpha galactosidase A R301Q mutant activity expressed in C57BL/6 transgenic alpha galactosidase A knockout mouse at 30 mg/kg/day, po administered for 2 weeks measured in liver relative to control; assay type: functional
# Mus musculus [3] = assay: Induction of human alpha galactosidase A R301Q mutant activity expressed in C57BL/6 transgenic alpha galactosidase A knockout mouse at 3 mg/kg/day, po administered for 2 weeks measured in liver relative to control; assay type: functional
# Mus musculus [4] = assay: Induction of human alpha galactosidase A R301Q mutant activity expressed in C57BL/6 transgenic alpha galactosidase A knockout mouse at 30 mg/kg/day, po administered for 2 weeks measured in spleen relative to control; assay type: functional
# Mus musculus [5] = assay: Induction of human alpha galactosidase A R301Q mutant activity expressed in C57BL/6 transgenic alpha galactosidase A knockout mouse at 3 mg/kg/day, po administered for 2 weeks measured in spleen relative to control; assay type: functional
# Mus musculus [6] = assay: Induction of in human alpha galactosidase A R301Q mutant activity expressed in C57BL/6 transgenic alpha galactosidase A knockout mouse at 30 mg/kg/day, po administered for 2 weeks measured in kidney relative to control; assay type: functional
# Mus musculus [7] = assay: Induction of human alpha galactosidase A R301Q mutant activity expressed in C57BL/6 transgenic alpha galactosidase A knockout mouse at 3 mg/kg/day, po administered for 2 weeks measured in kidney relative to control; assay type: functional
# Mus musculus [8] = assay: Induction of human alpha galactosidase A R301Q mutant activity expressed in C57BL/6 transgenic alpha galactosidase A knockout mouse at 30 mg/kg/day, po administered for 2 weeks measured in heart relative to control; assay type: functional
# Mus musculus [9] = assay: Induction of human alpha galactosidase A R301Q mutant activity expressed in C57BL/6 transgenic alpha galactosidase A knockout mouse at 3 mg/kg/day, po administered for 2 weeks measured in heart relative to control; assay type: functional
# Homo sapiens [10] = species: Homo sapiens; assay: Induction of beta-hexosaminidase S in fibroblasts derived from ISD patient after 5 days by Western blotting analysis relative to control
# Homo sapiens [11] = species: Homo sapiens; assay: Induction of beta-hexosaminidase S activity in fibroblasts derived from ISD patient at 100 uM after 5 days by Western blotting analysis relative to control
# [12] = test system: T2, Lysosomal acid glucosylceramidase (Homo sapiens), P04062 [N409S]; assay: Induction of beta glucosidase N370S mutant activity in cells derived from Gaucher disease patient at 20 uM relative to control
# T2 sequence (whole entry): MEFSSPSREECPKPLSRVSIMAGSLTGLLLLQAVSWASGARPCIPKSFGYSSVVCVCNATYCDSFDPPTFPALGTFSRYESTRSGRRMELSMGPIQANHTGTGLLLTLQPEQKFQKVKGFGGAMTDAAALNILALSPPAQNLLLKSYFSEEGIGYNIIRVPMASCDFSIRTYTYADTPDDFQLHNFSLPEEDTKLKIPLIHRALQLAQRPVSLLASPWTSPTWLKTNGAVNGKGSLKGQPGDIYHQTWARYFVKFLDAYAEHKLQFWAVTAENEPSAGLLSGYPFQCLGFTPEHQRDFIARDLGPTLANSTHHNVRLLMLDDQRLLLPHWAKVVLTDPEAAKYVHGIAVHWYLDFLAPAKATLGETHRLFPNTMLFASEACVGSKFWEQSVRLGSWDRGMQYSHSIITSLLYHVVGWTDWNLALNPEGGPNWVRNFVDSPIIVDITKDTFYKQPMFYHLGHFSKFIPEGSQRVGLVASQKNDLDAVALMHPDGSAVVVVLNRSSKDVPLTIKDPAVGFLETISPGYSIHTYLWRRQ
# [13] = test system: T2, Lysosomal acid glucosylceramidase (Homo sapiens), P04062 [N409S]; assay: Induction of beta glucosidase N370S mutant activity in primary skin fibroblast derived from Gaucher disease patient at 20 uM after 5 days relative to control
# Homo sapiens [14] = species: Homo sapiens; assay: Induction of beta glucosidase G202R mutant activity in primary skin fibroblast derived from patient after 5 days relative to control
# [15] = test system: T2, Lysosomal acid glucosylceramidase (Homo sapiens), P04062 [N409S]; assay: Induction of beta glucosidase N370S mutant activity in primary skin fibroblast derived from Gaucher disease patient after 5 days relative to control
# Beta-glucosidase = target: T3, Beta-glucosidase (Homo sapiens, UniProt Q9HCG7); assay: Inhibition of beta glucosidase (unknown origin)
# T3 sequence (Q9HCG7 whole entry): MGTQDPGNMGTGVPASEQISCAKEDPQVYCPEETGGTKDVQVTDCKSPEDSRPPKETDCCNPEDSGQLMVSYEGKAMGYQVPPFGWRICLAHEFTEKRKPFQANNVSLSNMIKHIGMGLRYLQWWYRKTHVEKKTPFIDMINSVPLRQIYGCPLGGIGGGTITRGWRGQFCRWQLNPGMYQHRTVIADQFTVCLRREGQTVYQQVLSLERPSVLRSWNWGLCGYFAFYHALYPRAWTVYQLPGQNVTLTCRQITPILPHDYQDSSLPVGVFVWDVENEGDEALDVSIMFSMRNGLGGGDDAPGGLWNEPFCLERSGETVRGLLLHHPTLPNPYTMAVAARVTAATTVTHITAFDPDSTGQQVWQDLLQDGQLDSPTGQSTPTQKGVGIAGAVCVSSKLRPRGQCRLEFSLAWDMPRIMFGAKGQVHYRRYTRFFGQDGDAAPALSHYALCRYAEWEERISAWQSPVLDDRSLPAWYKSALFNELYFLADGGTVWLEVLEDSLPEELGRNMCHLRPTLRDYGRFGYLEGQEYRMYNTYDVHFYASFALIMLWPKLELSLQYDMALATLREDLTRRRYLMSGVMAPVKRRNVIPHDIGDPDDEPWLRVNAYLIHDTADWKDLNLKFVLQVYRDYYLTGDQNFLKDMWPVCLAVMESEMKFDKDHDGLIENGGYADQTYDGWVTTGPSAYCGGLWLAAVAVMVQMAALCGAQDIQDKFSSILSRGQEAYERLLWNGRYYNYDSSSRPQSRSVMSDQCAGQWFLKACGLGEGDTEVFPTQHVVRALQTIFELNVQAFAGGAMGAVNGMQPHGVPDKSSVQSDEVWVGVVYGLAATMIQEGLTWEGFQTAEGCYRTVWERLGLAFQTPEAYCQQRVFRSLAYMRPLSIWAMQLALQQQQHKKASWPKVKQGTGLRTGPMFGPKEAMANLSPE
# Homo sapiens [16] = species: Homo sapiens; assay: Induction of beta hexosaminidase activity in patient derived cell-line at 50 uM relative to control
# [17] = Non competitive inhibition of beta hexosaminidase (unknown origin); design: species or system Homo sapiens
# Mus musculus [18] = assay: Induction of beta glucosidase L444P mutant in mouse brain administered with drinking water measured after 4 weeks relative to control; assay type: functional
# [19] = target: T4, Palmitoyl-protein thioesterase 1 (Homo sapiens, UniProt P50897); assay: Inhibition of PPT1 (unknown origin) in cell lysates using fluorescent-based MUGSP as substrate after 1 to 3 hrs
# T4 sequence (P50897 whole entry): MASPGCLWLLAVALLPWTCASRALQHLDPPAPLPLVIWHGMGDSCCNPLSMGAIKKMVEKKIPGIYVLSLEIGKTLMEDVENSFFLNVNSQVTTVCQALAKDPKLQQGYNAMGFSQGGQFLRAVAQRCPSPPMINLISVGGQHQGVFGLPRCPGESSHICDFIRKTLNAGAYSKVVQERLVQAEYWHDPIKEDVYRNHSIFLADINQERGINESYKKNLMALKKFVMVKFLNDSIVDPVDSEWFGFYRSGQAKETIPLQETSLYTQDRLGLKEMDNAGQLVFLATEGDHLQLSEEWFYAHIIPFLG
# Homo sapiens [20] = species: Homo sapiens; assay: Induction of beta-hexosaminidase S in fibroblasts derived from ISD patient at 10 uM after 5 days by Western blotting analysis relative to control
# Beta-galactosidase = target: T5, Beta-galactosidase (Homo sapiens, UniProt P16278); assay: Inhibition of human beta galactosidase
# T5 sequence (P16278 whole entry): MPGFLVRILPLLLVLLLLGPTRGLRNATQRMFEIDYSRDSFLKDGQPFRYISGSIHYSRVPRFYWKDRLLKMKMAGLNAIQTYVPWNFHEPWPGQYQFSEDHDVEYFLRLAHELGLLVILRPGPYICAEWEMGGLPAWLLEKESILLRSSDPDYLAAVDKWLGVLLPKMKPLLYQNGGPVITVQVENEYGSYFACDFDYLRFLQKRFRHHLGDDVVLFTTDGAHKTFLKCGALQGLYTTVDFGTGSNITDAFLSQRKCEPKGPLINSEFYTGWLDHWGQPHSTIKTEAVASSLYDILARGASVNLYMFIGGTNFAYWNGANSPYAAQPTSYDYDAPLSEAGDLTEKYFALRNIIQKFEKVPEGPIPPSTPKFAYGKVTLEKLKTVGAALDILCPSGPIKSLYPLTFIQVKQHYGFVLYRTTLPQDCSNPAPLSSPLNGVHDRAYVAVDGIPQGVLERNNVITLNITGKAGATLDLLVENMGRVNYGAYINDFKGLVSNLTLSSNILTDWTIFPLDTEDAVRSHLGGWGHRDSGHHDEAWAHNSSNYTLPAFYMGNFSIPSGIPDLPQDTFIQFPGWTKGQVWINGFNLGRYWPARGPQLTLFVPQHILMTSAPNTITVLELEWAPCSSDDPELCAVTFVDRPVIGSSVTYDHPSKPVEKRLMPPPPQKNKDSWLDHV
compound,measurement,setting,value
OC[C@H]1NC[C@H](O)[C@@H](O)[C@H]1O,fold change (FC),[1],14
same,fold change (FC),Mus musculus [2],7.1
same,fold change (FC),Mus musculus [3],3.1
same,fold change (FC),Mus musculus [4],1.8
same,fold change (FC),Mus musculus [5],1.7
same,fold change (FC),Mus musculus [6],28
same,fold change (FC),Mus musculus [7],2
same,fold change (FC),Mus musculus [8],18
same,fold change (FC),Mus musculus [9],4
O=C1c2ccccc2/C(=N/O)C1[N+](=O)[O-] (configuration not stated),fold change (FC),Homo sapiens [10],2
Cc1[nH]cc2c(=O)n(Cc3ccc(Cl)cc3)ncc12,fold change (FC),Homo sapiens [11],2.5
"OC[C@@H]1[C@@H](O)C(O)[C@@H](O)CN1CCCn1cc(COc2ccccc2)nn1 (single isomer, unassigned)",fold change (FC),[12],1.9
CN(C)c1cccc2c(S(=O)(=O)NCCCCCCN(CCCCCCNS(=O)(=O)c3cccc4c(N(C)C)cccc34)C(=O)CCCCCCN3C[C@H](O)[C@@H](O)[C@H](O)[C@H]3CO)cccc12,fold change (FC),[13],1.6
O=C(CCCCCN1C[C@H](O)[C@@H](O)[C@H](O)[C@H]1CO)NC12CC3CC(CC(C3)C1)C2,fold change (FC),Homo sapiens [14],2.7
same,fold change (FC),[15],1.4
O[C@H]1[C@H](O)[C@@H](O)CN2CC[C@H](O)[C@H]12 [CASTANOSPERMINE],IC50,Beta-glucosidase,19 µM
CC(=O)N[C@H]1CN(Cc2ccccc2)[C@@H](CO)[C@@H]1O,fold change (FC),Homo sapiens [16],2
same,Ki,[17],2.8 µM
OC[C@H]1CNC[C@@H](O)[C@@H]1O [AFEGOSTAT],fold change (FC),Mus musculus [18],2
CCCCCCCCCCCCCCCC(=O)NC[C@H](NC(=O)CNC(C)=O)C(=O)N[C@H](C(=O)N[C@@H](CCCCN)C(=O)N[C@H](C(=O)N[C@@H](CCCCN)C(=O)N[C@@H](CCCCN)C(=O)O)[C@@H](C)CC)C(C)C (Ac-G[Dap](Palmitoyl)VKIKK-OH),IC50,[19],10 µM
O=C1c2cccc3cccc(c23)C(=O)N1CCNCCN1C(=O)c2cccc3cccc(c23)C1=O,fold change (FC),Homo sapiens [20],3
CCCCCCCCN[C@@H]1C=C(CO)[C@H](O)[C@H](O)[C@H]1O,Ki,Beta-galactosidase,0.3 µM
